Test results reported in ChEMBL document CHEMBL5465560, “Selectivity Literature for EUbOPEN Chemogenomic Library” (2024).

Assays:
[1] = molecular target: Epidermal growth factor receptor (Homo sapiens, UniProt P00533); settings: at 10 µM
[2] = molecular target: T1, G protein-coupled receptor kinase 3 (Homo sapiens) (UniProt P35626); test: Selectivity interaction (Kinase panel (Invitrogen)) EUB0000639a ADRBK2; settings: at 200 nM
T1 sequence (whole entry): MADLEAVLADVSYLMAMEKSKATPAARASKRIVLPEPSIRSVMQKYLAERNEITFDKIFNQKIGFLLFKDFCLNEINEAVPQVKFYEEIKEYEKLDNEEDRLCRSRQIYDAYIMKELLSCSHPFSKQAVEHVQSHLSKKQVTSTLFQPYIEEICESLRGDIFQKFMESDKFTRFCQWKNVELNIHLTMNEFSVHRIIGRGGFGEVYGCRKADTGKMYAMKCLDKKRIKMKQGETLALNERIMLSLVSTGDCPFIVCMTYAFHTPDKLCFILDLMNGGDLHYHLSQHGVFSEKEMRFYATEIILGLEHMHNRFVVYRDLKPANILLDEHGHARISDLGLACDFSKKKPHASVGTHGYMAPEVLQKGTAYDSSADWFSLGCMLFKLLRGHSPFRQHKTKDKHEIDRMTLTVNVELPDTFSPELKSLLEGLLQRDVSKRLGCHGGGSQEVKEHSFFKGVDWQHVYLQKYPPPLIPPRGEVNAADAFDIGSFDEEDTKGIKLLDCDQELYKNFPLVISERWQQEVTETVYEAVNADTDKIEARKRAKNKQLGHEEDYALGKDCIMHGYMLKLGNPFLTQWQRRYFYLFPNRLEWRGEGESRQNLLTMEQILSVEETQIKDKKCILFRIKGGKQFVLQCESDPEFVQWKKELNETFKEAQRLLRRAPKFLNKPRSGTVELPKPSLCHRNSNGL

[3] = molecular target: Tyrosine-protein kinase JAK1 (Homo sapiens, UniProt P23458); test: Selectivity interaction (ActivX KiNativ screen (kinase selectivity in THP-1 cell lysates)) EUB0000639a JAK1; assay type: subcellular; settings: lysate
Chain of Tyrosine-protein kinase JAK1 (P23458 whole entry): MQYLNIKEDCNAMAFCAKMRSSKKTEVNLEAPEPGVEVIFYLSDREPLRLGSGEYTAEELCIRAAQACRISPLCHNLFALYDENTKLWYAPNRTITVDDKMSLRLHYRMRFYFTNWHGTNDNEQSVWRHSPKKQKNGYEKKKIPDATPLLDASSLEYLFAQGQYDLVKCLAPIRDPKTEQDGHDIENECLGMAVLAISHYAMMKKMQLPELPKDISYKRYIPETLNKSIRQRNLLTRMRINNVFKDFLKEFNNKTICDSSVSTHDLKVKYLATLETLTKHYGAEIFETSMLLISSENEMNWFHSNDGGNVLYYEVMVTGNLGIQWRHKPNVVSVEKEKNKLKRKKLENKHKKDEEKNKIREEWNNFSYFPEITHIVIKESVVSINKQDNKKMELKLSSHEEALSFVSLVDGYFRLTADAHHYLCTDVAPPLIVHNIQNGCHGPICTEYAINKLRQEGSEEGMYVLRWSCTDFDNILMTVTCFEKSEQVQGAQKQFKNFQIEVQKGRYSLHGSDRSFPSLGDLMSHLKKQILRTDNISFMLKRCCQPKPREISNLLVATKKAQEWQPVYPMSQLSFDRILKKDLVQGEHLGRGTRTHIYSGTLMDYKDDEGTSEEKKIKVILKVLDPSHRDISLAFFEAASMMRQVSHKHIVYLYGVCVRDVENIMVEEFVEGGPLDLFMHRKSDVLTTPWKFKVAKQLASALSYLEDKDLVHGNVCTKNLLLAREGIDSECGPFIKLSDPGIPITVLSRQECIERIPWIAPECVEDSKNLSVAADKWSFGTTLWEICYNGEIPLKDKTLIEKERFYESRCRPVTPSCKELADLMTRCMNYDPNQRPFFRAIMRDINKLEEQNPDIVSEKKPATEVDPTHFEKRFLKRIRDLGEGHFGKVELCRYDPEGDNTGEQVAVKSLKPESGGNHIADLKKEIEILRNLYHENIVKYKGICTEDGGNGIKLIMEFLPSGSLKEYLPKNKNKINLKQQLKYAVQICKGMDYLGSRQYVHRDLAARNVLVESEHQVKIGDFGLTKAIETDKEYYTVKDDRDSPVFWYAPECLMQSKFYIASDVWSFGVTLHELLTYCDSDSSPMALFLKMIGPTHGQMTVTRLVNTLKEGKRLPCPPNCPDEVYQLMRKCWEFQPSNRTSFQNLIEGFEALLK

Focal adhesion kinase 1 = Focal adhesion kinase 1 (Homo sapiens, UniProt Q05397); test: Selectivity interaction (ActivX KiNativ screen (kinase selectivity in THP-1 cell lysates)) EUB0000639a PTK2; assay type: subcellular; settings: lysate, at 0.01 µM
Chain of Focal adhesion kinase 1 (Q05397 2-1052 limits assumed): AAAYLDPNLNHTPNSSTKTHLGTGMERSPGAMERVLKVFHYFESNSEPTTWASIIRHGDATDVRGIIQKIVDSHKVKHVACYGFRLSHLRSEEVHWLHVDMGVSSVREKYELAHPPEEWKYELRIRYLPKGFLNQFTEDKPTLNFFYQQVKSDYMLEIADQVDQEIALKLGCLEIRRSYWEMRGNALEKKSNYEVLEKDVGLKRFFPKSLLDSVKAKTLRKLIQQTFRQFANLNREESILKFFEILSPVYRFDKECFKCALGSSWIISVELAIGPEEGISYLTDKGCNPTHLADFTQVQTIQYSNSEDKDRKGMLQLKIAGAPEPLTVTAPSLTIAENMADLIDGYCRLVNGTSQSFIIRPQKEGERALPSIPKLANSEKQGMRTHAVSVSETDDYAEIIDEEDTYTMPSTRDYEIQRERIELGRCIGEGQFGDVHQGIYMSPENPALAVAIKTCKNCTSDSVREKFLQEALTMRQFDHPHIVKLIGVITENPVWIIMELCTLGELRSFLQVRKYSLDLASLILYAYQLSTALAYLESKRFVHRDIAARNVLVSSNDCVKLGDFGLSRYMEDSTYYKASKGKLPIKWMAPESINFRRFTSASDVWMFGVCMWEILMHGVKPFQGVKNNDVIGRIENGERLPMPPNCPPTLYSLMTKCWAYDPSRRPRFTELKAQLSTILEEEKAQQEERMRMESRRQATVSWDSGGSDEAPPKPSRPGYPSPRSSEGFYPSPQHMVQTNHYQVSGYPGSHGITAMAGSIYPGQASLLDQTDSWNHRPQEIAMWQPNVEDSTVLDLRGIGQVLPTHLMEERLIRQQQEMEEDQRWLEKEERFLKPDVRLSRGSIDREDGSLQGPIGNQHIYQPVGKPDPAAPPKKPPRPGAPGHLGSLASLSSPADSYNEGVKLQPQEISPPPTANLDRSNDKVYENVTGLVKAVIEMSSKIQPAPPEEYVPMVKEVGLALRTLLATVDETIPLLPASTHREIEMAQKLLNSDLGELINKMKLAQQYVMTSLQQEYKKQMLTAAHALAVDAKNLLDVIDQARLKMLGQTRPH

[4] = molecular target: Amine oxidase [flavin-containing] A (Homo sapiens, UniProt P21397); test: Selectivity interaction (Panel of non-epigenetic targets (kinases, GPCRs, ion channels, and transporters, Eurofins) ) EUB0000271b MAOA; settings: at 1 µM
Chain of Amine oxidase [flavin-containing] A (P21397 whole entry): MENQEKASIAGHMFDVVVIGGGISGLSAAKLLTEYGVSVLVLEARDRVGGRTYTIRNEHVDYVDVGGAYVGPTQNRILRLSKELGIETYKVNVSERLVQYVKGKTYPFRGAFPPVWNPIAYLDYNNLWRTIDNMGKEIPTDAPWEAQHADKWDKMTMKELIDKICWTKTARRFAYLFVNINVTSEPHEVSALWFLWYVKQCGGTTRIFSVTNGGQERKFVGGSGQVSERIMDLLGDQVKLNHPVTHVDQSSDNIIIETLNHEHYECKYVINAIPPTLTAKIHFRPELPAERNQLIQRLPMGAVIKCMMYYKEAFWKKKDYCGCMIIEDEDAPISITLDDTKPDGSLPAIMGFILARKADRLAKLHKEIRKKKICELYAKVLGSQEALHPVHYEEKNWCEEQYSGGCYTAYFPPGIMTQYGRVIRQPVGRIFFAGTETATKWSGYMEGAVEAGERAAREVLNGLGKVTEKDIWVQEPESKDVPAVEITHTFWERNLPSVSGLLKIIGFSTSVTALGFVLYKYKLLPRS

[5] = molecular target: T2, Serine/threonine-protein kinase TAO2 (Homo sapiens) (UniProt Q9UL54); test: Selectivity interaction (KinomeScan (DiscoverX)) EUB0000618a TAOK2; settings: at 10 µM
T2 sequence (whole entry): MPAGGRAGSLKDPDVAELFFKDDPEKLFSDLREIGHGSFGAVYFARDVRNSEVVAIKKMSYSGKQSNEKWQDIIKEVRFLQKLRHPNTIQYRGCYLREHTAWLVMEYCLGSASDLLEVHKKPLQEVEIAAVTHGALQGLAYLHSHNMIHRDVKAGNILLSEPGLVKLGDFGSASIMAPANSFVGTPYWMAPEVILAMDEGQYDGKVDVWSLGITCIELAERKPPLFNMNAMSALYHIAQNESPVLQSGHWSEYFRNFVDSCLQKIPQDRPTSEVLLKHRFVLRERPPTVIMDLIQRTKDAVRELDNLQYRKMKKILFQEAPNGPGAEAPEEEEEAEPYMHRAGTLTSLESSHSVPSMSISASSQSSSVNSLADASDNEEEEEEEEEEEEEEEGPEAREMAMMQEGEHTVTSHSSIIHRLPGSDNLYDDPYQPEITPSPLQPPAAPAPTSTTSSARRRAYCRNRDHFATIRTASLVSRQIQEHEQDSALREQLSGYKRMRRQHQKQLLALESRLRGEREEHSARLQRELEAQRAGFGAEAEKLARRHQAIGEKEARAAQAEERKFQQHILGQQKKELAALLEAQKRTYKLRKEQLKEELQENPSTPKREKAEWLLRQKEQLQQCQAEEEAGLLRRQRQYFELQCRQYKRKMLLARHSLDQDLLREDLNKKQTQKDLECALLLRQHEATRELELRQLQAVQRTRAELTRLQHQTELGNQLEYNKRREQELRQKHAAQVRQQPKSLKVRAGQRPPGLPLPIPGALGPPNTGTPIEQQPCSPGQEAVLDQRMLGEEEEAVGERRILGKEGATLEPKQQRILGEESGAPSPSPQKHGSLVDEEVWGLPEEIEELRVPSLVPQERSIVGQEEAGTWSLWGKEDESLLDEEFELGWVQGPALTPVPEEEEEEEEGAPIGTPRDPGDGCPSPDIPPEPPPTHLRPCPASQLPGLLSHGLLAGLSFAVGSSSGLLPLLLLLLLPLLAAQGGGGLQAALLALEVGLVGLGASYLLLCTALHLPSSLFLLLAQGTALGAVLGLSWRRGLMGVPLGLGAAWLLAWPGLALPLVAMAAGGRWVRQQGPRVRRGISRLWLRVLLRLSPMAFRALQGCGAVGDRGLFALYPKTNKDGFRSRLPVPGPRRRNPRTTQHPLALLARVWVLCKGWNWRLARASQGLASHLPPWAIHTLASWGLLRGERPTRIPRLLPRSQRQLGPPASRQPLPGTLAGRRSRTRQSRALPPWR

[6] = molecular target: Fibroblast growth factor receptor 2 (Homo sapiens) (UniProt P21802); test: Selectivity interaction (KinomeScan (DiscoverX)) EUB0000618a FGFR2; settings: at 10 µM
Chain of Fibroblast growth factor receptor 2 (Homo sapiens) (P21802 22-821 limits assumed): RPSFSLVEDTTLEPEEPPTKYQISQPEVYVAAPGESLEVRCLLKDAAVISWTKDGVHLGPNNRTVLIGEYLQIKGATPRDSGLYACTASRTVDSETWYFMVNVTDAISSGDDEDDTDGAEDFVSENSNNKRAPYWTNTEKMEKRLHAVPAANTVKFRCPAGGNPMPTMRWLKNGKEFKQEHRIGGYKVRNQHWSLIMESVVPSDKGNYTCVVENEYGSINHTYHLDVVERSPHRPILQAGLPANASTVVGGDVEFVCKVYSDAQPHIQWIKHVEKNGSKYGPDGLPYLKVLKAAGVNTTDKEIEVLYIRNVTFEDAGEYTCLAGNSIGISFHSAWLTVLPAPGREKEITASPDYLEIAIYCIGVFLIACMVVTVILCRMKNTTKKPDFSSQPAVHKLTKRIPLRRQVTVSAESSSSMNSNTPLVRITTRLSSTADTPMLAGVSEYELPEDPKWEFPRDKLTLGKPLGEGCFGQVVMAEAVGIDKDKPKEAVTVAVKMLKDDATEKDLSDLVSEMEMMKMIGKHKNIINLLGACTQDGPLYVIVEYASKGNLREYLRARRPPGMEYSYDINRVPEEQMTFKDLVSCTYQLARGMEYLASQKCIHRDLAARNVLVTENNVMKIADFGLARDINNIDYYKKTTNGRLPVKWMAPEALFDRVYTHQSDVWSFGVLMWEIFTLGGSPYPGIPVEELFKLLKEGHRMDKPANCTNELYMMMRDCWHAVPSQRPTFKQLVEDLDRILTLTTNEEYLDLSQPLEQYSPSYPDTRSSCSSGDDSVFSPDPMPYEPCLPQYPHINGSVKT

Chain of Epidermal growth factor receptor (P00533 whole entry): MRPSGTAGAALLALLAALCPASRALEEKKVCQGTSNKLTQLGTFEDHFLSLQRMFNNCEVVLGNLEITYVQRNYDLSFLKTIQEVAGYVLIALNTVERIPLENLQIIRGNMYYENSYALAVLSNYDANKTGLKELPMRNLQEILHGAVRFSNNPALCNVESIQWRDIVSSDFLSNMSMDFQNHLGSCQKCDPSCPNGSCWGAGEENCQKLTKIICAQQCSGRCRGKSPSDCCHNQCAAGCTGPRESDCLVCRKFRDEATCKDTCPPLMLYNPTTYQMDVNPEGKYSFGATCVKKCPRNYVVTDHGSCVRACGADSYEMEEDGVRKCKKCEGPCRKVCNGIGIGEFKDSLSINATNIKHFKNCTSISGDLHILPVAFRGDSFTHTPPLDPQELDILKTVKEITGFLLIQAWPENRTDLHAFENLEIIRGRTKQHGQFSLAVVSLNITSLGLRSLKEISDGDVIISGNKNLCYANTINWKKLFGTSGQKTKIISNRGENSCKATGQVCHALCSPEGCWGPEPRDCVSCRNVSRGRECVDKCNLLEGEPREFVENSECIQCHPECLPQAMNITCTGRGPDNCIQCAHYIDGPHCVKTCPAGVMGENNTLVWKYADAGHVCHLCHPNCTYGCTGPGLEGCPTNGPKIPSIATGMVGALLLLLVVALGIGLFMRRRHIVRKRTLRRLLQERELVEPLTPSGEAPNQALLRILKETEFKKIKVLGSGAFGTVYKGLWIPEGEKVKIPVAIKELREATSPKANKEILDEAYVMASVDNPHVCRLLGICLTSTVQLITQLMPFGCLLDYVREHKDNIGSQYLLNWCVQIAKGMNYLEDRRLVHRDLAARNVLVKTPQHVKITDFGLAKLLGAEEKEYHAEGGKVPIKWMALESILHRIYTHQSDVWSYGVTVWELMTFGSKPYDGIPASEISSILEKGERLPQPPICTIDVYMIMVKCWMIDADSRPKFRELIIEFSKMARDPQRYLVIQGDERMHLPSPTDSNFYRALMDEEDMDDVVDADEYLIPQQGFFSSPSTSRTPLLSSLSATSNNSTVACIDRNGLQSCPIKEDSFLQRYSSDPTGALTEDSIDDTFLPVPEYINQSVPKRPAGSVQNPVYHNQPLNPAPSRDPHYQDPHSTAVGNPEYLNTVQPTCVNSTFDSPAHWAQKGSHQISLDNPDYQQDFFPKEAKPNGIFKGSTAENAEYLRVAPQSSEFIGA

Cc1cc([C@@H](C)Nc2ccccc2C(=O)O)c2nc(N3CCOCC3)cc(=O)n2c1 [AZD-6482]
% of control [1]: 96%

CC[C@@H]1[C@H](F)C(=O)N[C@@H]1COc1nccc2cc(C(N)=O)c(OC)cc12 [ZIMLOVISERTIB]
% of inhibition [2]: 2.95% | % of inhibition ([3]; at 0.01 µM): 18% | % of inhibition ([3]; at 0.04 µM): 15.6% | % of inhibition ([3]; at 0.2 µM): 11.9% | % of inhibition ([3]; at 1 µM): 9% | % of inhibition ([3]; at 5 µM): -24.4% | % of inhibition (Focal adhesion kinase 1): -47.2%

Cc1cc(C)cc([C@@H]2c3cc(C)ccc3NC(=O)CN2C(=O)c2ccc(Br)s2)c1
% of inhibition [4]: 12%

O[C@H]1CC[C@H](Nc2ncc3nc(Nc4c(F)cc(F)cc4F)n([C@H]4CCOC4)c3n2)CC1
% of control [5]: 93% | % of control [6]: 83%
